# Reference: paper PMC7838546, “A Thermostable, Modified Cathelicidin-Derived Peptide With Enhanced Membrane-Active Activity Against Salmonella enterica serovar Typhimurium” (Frontiers in Microbiology, 2021)
# Where two headings read alike, the source gives them in different places. Ends that are not written are not given here.
# Assays:
# [1] = tested on: L929 mouse fibroblast cells; experiment: Cytotoxicity assay (MTT); format: cell-based; details: 24 h, up to 125 μg/ml
# Protocol: The toxicity of P7 peptide on L929 mouse fibroblast cells was assessed by a dye reduction assay using 3-(4,5 dimethylthiazol-2-yl)-2,5-diphenyltetrazolium bromide (MTT). Briefly, 3 × 10^4 L929 cells in RPMI 1640 [supplemented with 10% (v/v) fetal bovine serum, 0.2% (w/v) sodium bicarbonate, 2 mM L-glutamine, 100 U/ml penicillin and […] streptomycin] were seeded into each well of 96-well plates and then incubated in a humidified atmosphere with 5% CO2 at 37°C for 24 h. After the incubation period, the peptide was added to obtain final concentrations of 0.98–250 μg/ml; plates were incubated at 37°C under 5% CO2 for 24 h. RPMI 1640 medium with and without cells were used as positive and negative controls, respectively. After incubation, a final concentration of 0.5 mg/ml MTT (Sigma-Aldrich, MO, United States) was added and incubated at 37°C under 5% CO2 for 4 h. Then, the supernatants were removed from each well and 150 μl of dimethyl sulfoxide (DMSO) was added and mixed thoroughly to solubilize the formazan crystals. Subsequently, absorbance was measured at 570 nm using a microplate reader. The cell viability (%) was calculated according to the formula:
# %Cellviability=ODTreated-ODBlank/ODUntreated-ODBlank×100
# [2] = tested on: Salmonella enterica serovar Typhimurium ATCC 13311; format: cell-based; details: ATCC 13311, standard strain, triplicate; for MIC: broth microdilution, ~10^7 CFU/ml, 37°C, 24 h
# Protocol: (§1) Salmonella enterica serovar Typhimurium ATCC 13311, 24 drug-resistant foodborne and eleven drug-resistant human borne S. enterica serovar Typhimurium and 4,5,12:i:- isolates (Table 1) were used as test microorganisms. They were previously isolated for molecular characterization in 2014 and kindly provided by Dr. Soraya Chaturongakul (Mahidol University, Thailand) ([Huoy et al., 2014]). All bacteria were cultured in Tryptic Soy Broth (TSB) and incubated at 37°C for 18 h. Mueller Hinton Broth (MHB) was then used to wash and rinse the bacteria. The bacterial suspensions were then diluted to obtain concentrations of 10^7 CFU/ml for inoculations.
# (§2) A modified version of the National Committee for Clinical Laboratory Standards (NCCLS) broth microdilution method ([Steinberg et al., 1997]) was used to determine the minimum inhibitory concentrations (MICs) of peptide and compared to that of nisin. Fifty microliters of two-fold serial dilutions of each peptide [0.98–250 μg/ml in 0.01% (v/v) acetic acid and 0.2% (w/v) bovine serum albumin (BSA, Sigma-Aldrich, MO, United States)], were incubated with 50 μl of bacterial suspensions (approximately 10^7 CFU/ml) at 37°C for 24 h in a shaking incubator. MICs were taken as the lowest concentration of peptide at which growth was inhibited as observed by visual inspection. Bacterial cultures without peptides and uncultured broth were used as positive and negative controls, respectively. Minimal bactericidal concentrations (MBCs) were determined using a colony count assay ([Clinical Laboratory Standards Institute [CLSI], 2015]). Fifty microliters of samples from each non-turbid well in the MIC determination experiment was plated on Mueller Hinton Agar (MHA) and colonies were observed after overnight incubation at 37°C. MBCs were designated as the least concentration showing no colony growth on the plate. All of experiments were performed in triplicate.
# [3] = tested on: S. enterica serovar Typhimurium ATCC 13311; format: cell-based, Salmonella enterica serovar Typhimurium
# Protocol: as §2
# The stability of P7 was tested by determining its antibacterial activity after exposure to different environmental conditions (high salt concentration, different ranges of pH, proteolytic enzymes and high temperatures) as previously described ([Shwaiki et al., 2020]). To test the effect of salts on the antibacterial activity of P7, 10^7 CFU/ml of S. enterica serovar Typhimurium ATCC 13311 was exposed to two-fold serially diluted concentrations (0.98–250 μg/ml) of P7 in the presence of different salts including NaCl (150 mM), KCl (4.5 mM), MgCl2 (1 mM), NH4Cl (6 μM), ZnCl2 (8 μM), FeCl3 (4 μM), and CaCl2 ([…]) ([Xu et al., 2014]). To determine pH stability, the pH of the peptide’s solution was adjusted to 3, 5, 7, 9, and 11 using 1 M NaOH or 1 M acetic acid (CH3COOH). P7 were incubated in the different pH conditions for 1 h, then transferred to inoculated MHB for antibacterial testing ([Chen et al., 2020]), There was no change of the pH following the addition of peptide. To determine the sensitivity of peptide to proteolytic enzymes, the residual activity of P7 was measured after incubation the peptide with 1 mg/ml (final concentration) of proteolytic enzymes (pepsin or trypsin) at 37°C for 1 h and heat denaturation at 80°C for 1 h. To study thermostability, peptides were pre-incubated without bacteria at various temperatures (40, 60, 80, and 100°C) for 1 h and left to cool for 30 min before testing. After these treatments, the antibacterial assays were carried out and MICs determined as described in section “Antibacterial activity assay.”
# [4] = tested on: S. enterica serovar 4,5,12:i:- H2-065 (foodborne isolate); experiment: MIC/MBC, broth microdilution and colony count; format: cell-based, Salmonella enterica serovar 4,5,12:i:-; details: H2-065, pork liver, resistant Amp, T, broth microdilution, 37°C, 24 h
# Protocol: as §1, §2
# [5] = tested on: S. enterica serovar 4,5,12:i:- H2-050 (foodborne isolate); experiment: MIC/MBC, broth microdilution and colony count; format: cell-based, Salmonella enterica serovar 4,5,12:i:-; details: H2-050, pork heart, resistant Amp, broth microdilution, 37°C, 24 h
# Protocol: as §1, §2
# [6] = tested on: S. enterica serovar 4,5,12:i:- H2-090 (foodborne isolate); experiment: MIC/MBC, broth microdilution and colony count; format: cell-based, Salmonella enterica serovar 4,5,12:i:-; details: H2-090, pork intestine, resistant Amp, T, broth microdilution, 37°C, 24 h
# Protocol: as §1, §2
# [7] = tested on: S. enterica serovar 4,5,12:i:- H2-062 (foodborne isolate); experiment: MIC/MBC, broth microdilution and colony count; format: cell-based, Salmonella enterica serovar 4,5,12:i:-; details: H2-062, pork intestine, resistant Amp, T, intermediate Cp, broth microdilution, 37°C, 24 h
# Protocol: as §1, §2
# [8] = peptide pre-incubated at 40°C for 1 h, cooled 30 min
substance,measurement,setting,value
KIAKRIWKILRR-NH2 [P7],Cytotoxicity on L929 cells,[1],no cytotoxicity
same,MIC,[2],3.91 (3.91) μg/ml
same,MBC,[2]; colony count on MHA,3.91 (3.91) μg/ml
same,MIC,"[3]; ATCC 13311, 1 h",7.81 µg/mL
same,MBC,"[3]; ATCC 13311, 1 h, pH 3",15.63 µg/mL
same,MIC,"[3]; ATCC 13311, 1 h, pH 3",7.81 µg/mL
same,MBC,"[3]; ATCC 13311, 1 h, pH 5",7.81 µg/mL
same,MIC,"[3]; ATCC 13311, 1 h, pH 5",7.81 µg/mL
same,MBC,"[3]; ATCC 13311, 1 h, pH 7",7.81 µg/mL
same,MIC,"[3]; ATCC 13311, 1 h, pH 7",7.81 µg/mL
same,MBC,"[3]; ATCC 13311, 1 h, pH 9",7.81 µg/mL
same,MIC,"[3]; ATCC 13311, 1 h, pH 9",7.81 µg/mL
same,MBC,"[3]; ATCC 13311, 1 h, pH 11",15.63 µg/mL
same,MIC,"[3]; ATCC 13311, 1 h, pH 11",7.81 µg/mL
same,MIC,"[3]; ATCC 13311, 24 h",7.81 µg/mL
same,MBC,[3]; Control (no salt),3.91 µg/mL
same,MIC,[3]; Control (no salt),3.91 µg/mL
same,MIC,[3]; MgCl2 (1 mM),31.25 µg/mL
same,MIC,[3]; NaCl (150 mM),31.25 µg/mL
same,MIC,"[3]; after pepsin 1 mg/ml, 37°C, 1 h, then heat denaturation 80°C",31.25 µg/mL
same,MIC,"[3]; after trypsin 1 mg/ml, 37°C, 1 h, then heat denaturation 80°C",31.25 µg/mL
same,MBC,[3]; [8],3.91 µg/mL
same,MIC,[3]; [8],3.91 µg/mL
same,MIC,"[3]; peptide pre-incubated at 60°C for 1 h, cooled 30 min",3.91 µg/mL
"Nisin: authorized food preservative peptide, binds lipid II and forms membrane pores (ITSISLCTPGCKTGALMGCNMKTATCHCSIHVSK; cysteine pairing not given here; also: lantibiotic nisin-A; UniProt P13068 24-57, looked up)",MIC,[2],>1000 µg/mL
same,MIC,[4],>1000 µg/mL
same,MIC,[5],>1000 µg/mL
same,MIC,[6],>1000 µg/mL
same,MIC,[7],>1000 µg/mL
